Experimental data from patent US20140087945A1, “SUBSTITUTED 4-CYAN-3-(2,6-DIFLUOROPHENYL)-4-PHENYLBUTANOATES, METHOD FOR THE PRODUCTION THEREOF AND USE THEREOF AS HERBICIDES AND PLANT GROWTH REGULATORS” (Bayer Intellectual Property GmbH, priority 2011, published 2014).

Key:
[1] = tested on: a plurality of harmful plants; experiment: Herbicidal pre-emergence action, greenhouse pot test; type: in vivo; details: pre-emergence method; application rate of 320 g or less of active substance per hectare
Source text: Seeds of monocotyledonous and dicotyledonous weed plants and crop plants are placed in wood-fiber pots in sandy loam and covered with soil. The compounds (I) according to the invention, formulated in the form of wettable powders (WP), are then applied as aqueous suspension or emulsion at a water application rate of 600 l/ha (converted) with the addition of 0.2% of wetting agent to the surface of the covering soil. After the treatment, the pots are placed in a greenhouse and kept under good growth conditions for the test plants. After about 3 weeks, the effect of the preparations is scored visually in comparison with untreated controls as percentages. For example, 100% activity=the plants have died, 50% herbicidal activity or damage=the plants have been reduced by 50% or the plant mass has been reduced by 50%, 0% activity=like control plants.

[2] = tested on: a plurality of harmful plants; experiment: Herbicidal post-emergence action, greenhouse pot test; type: in vivo; details: post-emergence method
Method: Seeds of monocotyledonous and dicotyledonous weed and crop plants are placed in sandy loam in wood-fiber pots, covered with soil and cultivated in a greenhouse under good growth conditions. 2 to 3 weeks after sowing, the test plants are treated at the one-leaf stage, where the compounds (I) according to the invention, formulated in the form of wettable powders (WP), are applied by spraying as aqueous suspension or emulsion at a water application rate of 600 l/ha (converted) with the addition of 0.2% of wetting agent to the green parts of the plants. After the test plants have been kept in the greenhouse under optimum growth conditions for about 3 weeks, the activity of the preparations is rated visually in comparison to untreated controls in percent (%): For example, 100% activity=the plants have died, 50% herbicidal activity or damage=the plants have been reduced by 50% or the plant mass has been reduced by 50%, 0% activity=like control plants.

Row | SMILES | herbicidal activity against a plurality of harmful plants [1] | herbicidal activity against a plurality of harmful plants [2]
1 | COC(=O)C[C@@H](c1c(F)cccc1F)[C@@H](C#N)c1ccc(F)c(Br)c1 [Example 2-229] | good herbicidal activity | good herbicidal activity
2 | COC(=O)CC(c1c(F)cccc1F)C(C#N)c1ccc(F)c(F)c1 (stereo not drawn) [Example 1-11, methyl 4-cyano-3-(2,6-difluorophenyl)-4-(3,4-difluorophenyl)butanoate] | good herbicidal activity | –
3 | COC(=O)CC(c1c(F)cccc1F)C(C#N)c1ccc(C(F)(F)F)c(F)c1 (mixture of isomers) [Example 1-29] | good herbicidal activity | good herbicidal activity
4 | N#CC(c1ccc(F)c(F)c1)C(CC(=O)O)c1c(F)cccc1F (stereo not drawn) [Example 1-106, 4-Cyano-3-(2,6-difluorophenyl)-4-(3,4-difluorophenyl)butanoic acid] | good herbicidal activity | good herbicidal activity
5 | COC(=O)CC(c1c(F)cccc1F)C(C#N)c1ccc(OC)c(F)c1 (mixture of isomers) [Example 1-28] | good herbicidal activity | good herbicidal activity
6 | COC(=O)CC(c1c(F)cccc1F)C(C#N)c1ccc(OC)cc1 (mixture of isomers) [Example 1-26] | good herbicidal activity | good herbicidal activity
7 | COC(=O)CC(c1c(F)cccc1F)C(C#N)c1ccc(OC)c(OC)c1 (mixture of isomers) [Example 1-27] | good herbicidal activity | good herbicidal activity
8 | COC(=O)CC(c1c(F)cccc1F)C(C#N)c1ccc(F)c(F)c1 (stereo not drawn) [Example 1-230, methyl erythro-4-cyano-3-(2,6-difluorophenyl)-4-(3,4-difluorophenyl)butanoate] | good herbicidal activity | good herbicidal activity
9 | COC(=O)CC(c1c(F)cccc1F)C(C#N)c1ccccc1OC (mixture of isomers) [Example 1-24] | good herbicidal activity | good herbicidal activity
10 | COC(=O)CC(c1c(F)cccc1F)C(C#N)c1cc(F)cc(F)c1 (mixture of isomers) [Example 1-12] | good herbicidal activity | good herbicidal activity
11 | COC(=O)CC(c1c(F)cccc1F)C(C#N)c1ccc(Cl)c(Cl)c1 (mixture of isomers) [Example 1-16] | good herbicidal activity | good herbicidal activity
12 | COC(=O)CC(c1c(F)cccc1F)C(C#N)c1ccc(F)c(C#N)c1 (mixture of isomers) [Example 1-233] | good herbicidal activity | good herbicidal activity
13 | COC(=O)C[C@@H](c1c(F)cccc1F)[C@@H](C#N)c1ccc(F)c(C#N)c1 [Example 2-230] | – | good herbicidal activity
14 | COC(=O)CC(c1c(F)cccc1F)C(C#N)c1ccc(F)c(Br)c1 (mixture of isomers) [Example 1-232] | good herbicidal activity | good herbicidal activity
15 | COC(=O)CC(c1c(F)cccc1F)C(C#N)c1ccc(Cl)cc1 (mixture of isomers) [Example 1-6] | good herbicidal activity | good herbicidal activity
16 | COC(=O)C[C@@H](c1c(F)cccc1F)[C@@H](C#N)c1ccc(F)c(Cl)c1 [Example 2-15] | good herbicidal activity | –
17 | COC(=O)CC(c1c(F)cccc1F)C(C#N)c1ccc(F)cc1 (mixture of isomers) [Example 1-3] | good herbicidal activity | good herbicidal activity
18 | COC(=O)CC(c1c(F)cccc1F)C(C#N)c1cc(F)cc(C(F)(F)F)c1 (mixture of isomers) [Example 1-30] | good herbicidal activity | good herbicidal activity
19 | COC(=O)C[C@@H](c1c(F)cccc1F)[C@@H](C#N)c1ccc(F)c(F)c1 [Example 2-11, Methyl (3R,4R)-4-cyano-3-(2,6-difluorophenyl)-4-(3,4-difluorophenyl)-butanoate] | good herbicidal activity | good herbicidal activity
20 | COC(=O)CC(c1c(F)cccc1F)C(C#N)c1ccc(F)c(Cl)c1 (mixture of isomers) [Example 1-15] | good herbicidal activity | good herbicidal activity
21 | COC(=O)CC(c1c(F)cccc1F)C(C#N)c1ccc2ccccc2c1 (mixture of isomers) [Example 1-235] | good herbicidal activity | –
22 | N#CC(c1cc(F)cc(C(F)(F)F)c1)C(CC(=O)O)c1c(F)cccc1F (mixture of isomers) [Example 1-228] | good herbicidal activity | good herbicidal activity
23 | COC(=O)CC(c1c(F)cccc1F)C(C#N)c1cccc(I)c1 (mixture of isomers) [Example 1-19] | good herbicidal activity | good herbicidal activity
24 | CCOC(=O)C[C@@H](c1c(F)cccc1F)[C@@H](C#N)c1ccc(F)c(F)c1 [Example 2-107, Ethyl (3R,4R)-4-cyano-3-(2,6-difluorophenyl)-4-(3,4-difluorophenyl)-butanoate] | good herbicidal activity | good herbicidal activity
25 | COC(=O)CC(c1c(F)cccc1F)C(C#N)c1ccc(F)c(F)c1 (stereo not drawn) [Example 1-231, methyl threo-4-cyano-3-(2,6-difluorophenyl)-4-(3,4-difluorophenyl)-butanoate] | good herbicidal activity | –
